Columns and labels:
[1] = target: recombinant human Mcl-1 (residues 171-327) / Bim interaction (Homo sapiens (Human), UniProt Q07820); assay: biochemical; type: binding; details: 0.1 nM Mcl-1(171-327), 0.05 nM biotin-Bim (51-76); read-out: Mcl-1 HTRF IC50
[2] = system: human multiple myeloma cell line, OPM-2; assay: Cell viability assay (OPM-2 10 FBS), CellTiter-Glo; type: cell-based; details: Homo sapiens, OPM-2, 16 h, read-out: OPM-2 10% FBS IC50 IP, OPM-2 cells, 10% FBS, 16 h incubation
How it was run: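 Cells were seeded at 3000 cells/well in RPMI 1640 with 10% FBS and exposed to serially diluted compounds for 16 h at 37 °C, 5% CO2.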

recombinant human Mcl-1 (residues 171-327) / Bim interaction, sequence (Q07820 171-327): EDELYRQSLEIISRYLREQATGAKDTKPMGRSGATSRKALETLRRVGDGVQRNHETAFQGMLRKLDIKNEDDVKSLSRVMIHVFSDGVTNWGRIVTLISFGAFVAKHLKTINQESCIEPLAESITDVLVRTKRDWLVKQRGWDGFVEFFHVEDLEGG

Structure (SMILES) | IC50 [1] | IC50 [2]
COCC[C@@H]1[C@@H](C)C/C=C/[C@](CN2CCN3CCOC[C@@H]3C2)(OC)[C@@H]2CC[C@H]2CN2C[C@@]3(CCCc4cc(Cl)ccc43)COc3ccc(cc32)C(=O)NS1(=O)=O [Example 179, (1S,3′R,6′R,7′S,8′E,11′S,12′R)-6-chloro-7′-((9aS)-hexahydropyrazino[2,1-c][1,4]oxazin-8(1H)-ylmethyl)-7′-methoxy-12′-(2-methoxyethyl)-11′-methyl-3,4-dihydro-2H,15′H-spiro[naphthalene-1,22′-[20]oxa[13]thia[1,14]diazatetracyclo [14.7.2.0~3,6~.0~19,24~]pentacosa[8,16,18,24]tetraen]-15′-one 13′,13′-dioxide] | 0.072 nM | 36 nM
COCC[C@@H]1[C@@H](C)C/C=C/[C@](CN2CCN(C)CC2)(OC)[C@@H]2CC[C@H]2CN2C[C@@]3(CCCc4cc(Cl)ccc43)COc3ccc(cc32)C(=O)NS1(=O)=O [Example 180, (1S,3′R,6′R,7′S,8′E,11′S,12′R)-6-chloro-7′-methoxy-12′-(2-methoxyethyl)-11′-methyl-7′-((4-methyl-1-piperazinyl)methyl)-3,4-dihydro-2H,15′H-spiro[naphthalene-1,22′-[20]oxa[13]thia[1,14]diazatetracyclo [14.7.2.0~3,6~.0~19,24~]pentacosa[8,16,18,24]tetraen]-15′-one 13′,13′-dioxide] | 0.106 nM | 81 nM
COCC[C@@H]1[C@@H](C)C/C=C/[C@@](CN2CCN3CCCC[C@@H]3C2)(OC)[C@@H]2CC[C@H]2CN2C[C@@]3(CCCc4cc(Cl)ccc43)COc3ccc(cc32)C(=O)NS1(=O)=O [Example 181, (1S,3′R,6′R,7′R,8′E,11′S,12′R)-6-chloro-7′-methoxy-12′-(2-methoxyethyl)-11′-methyl-7′-((9aR)-octahydro-2H-pyrido[1,2-a]pyrazin-2-ylmethyl)-3,4-dihydro-2H,15′H-spiro[naphthalene-1,22′-[20]oxa[13]thia[1,14]diazatetracyclo [14.7.2.0~3,6~.0~19,24~]pentacosa[8,16,18,24]tetraen]-15′-one 13′,13′-dioxide] | 0.324 nM | 74 nM
COCC[C@@H]1[C@@H](C)C/C=C/[C@](CN2CCN3CCCC[C@@H]3C2)(OC)[C@@H]2CC[C@H]2CN2C[C@@]3(CCCc4cc(Cl)ccc43)COc3ccc(cc32)C(=O)NS1(=O)=O [Example 182, (1S,3′R,6′R,7′S,8′E,11′S,12′R)-6-chloro-7′-methoxy-12′-(2-methoxyethyl)-11′-methyl-7′-((9aR)-octahydro-2H-pyrido[1,2-a]pyrazin-2-ylmethyl)-3,4-dihydro-2H,15′H-spiro[naphthalene-1,22′-[20]oxa[13]thia[1,14]diazatetracyclo [14.7.2.0~3,6~.0~19,24~]pentacosa[8,16,18,24]tetraen]-15′-one 13′,13′-dioxide] | 0.171 nM | 88 nM
COC[C@@H]1[C@@H](C)C/C=C/[C@@](CN2CCN3CCOC[C@@H]3C2)(OC)[C@@H]2CC[C@H]2CN2C[C@@]3(CCCc4cc(Cl)ccc43)COc3ccc(cc32)C(=O)NS1(=O)=O [Example 184, (1S,3′R,6′R,7′R,8′E,11′S,12′S)-6-chloro-7′-((9aS)-hexahydropyrazino[2,1-c][1,4]oxazin-8(1H)-ylmethyl)-7′-methoxy-12′-(methoxymethyl)-11′-methyl-3,4-dihydro-2H,15′H-spiro[naphthalene-1,22′-[20]oxa[13]thia[1,14]diazatetracyclo [14.7.2.0~3,6~.0~19,24~]pentacosa[8,16,18,24]tetraen]-15′-one 13′,13′-dioxide] | 0.068 nM | 17 nM
CO[C@]1(CN2CCN3CCOC[C@@H]3C2)/C=C/C[C@H](C)[C@@H](C)S(=O)(=O)NC(=O)c2ccc3c(n2)N(C[C@@H]2CC[C@H]21)C[C@@]1(CCCc2cc(Cl)ccc21)CO3 [Example 185, (1S,3′R,6′R,7′R,8′E,11′S,12′R)-6-chloro-7′-((9aS)-hexahydropyrazino[2,1-c][1,4]oxazin-8(1H)-ylmethyl)-7′-methoxy-11′,12′-dimethyl-3,4-dihydro-2H,15′H-spiro[naphthalene-1,22′-[20]oxa[13]thia[1,14,25]triazatetracyclo [14.7.2.0~3,6~.0~19,24~]pentacosa[8,16,18,24]tetraen]-15′-one 13′,13′-dioxide] | 0.17 nM | 1060 nM
CO[C@]1(CN2CCN3CCCC[C@@H]3C2)/C=C/C[C@H](C)[C@@H](C)S(=O)(=O)NC(=O)c2ccc3c(n2)N(C[C@@H]2CC[C@H]21)C[C@@]1(CCCc2cc(Cl)ccc21)CO3 [Example 186, (1S,3′R,6′R,7′R,8′E,11′S,12′R)-6-chloro-7′-methoxy-11′,12′-dimethyl-7′-((9aR)-octahydro-2H-pyrido[1,2-a]pyrazin-2-ylmethyl)-3,4-dihydro-2H,15′H-spiro[naphthalene-1,22′-[20]oxa[13]thia[1,14,25]triazatetracyclo [14.7.2.0~3,6~.0~19,24~]pentacosa[8,16,18,24]tetraen]-15′-one 13′,13′-dioxide] | 0.255 nM | 431 nM
COCC[C@@H]1[C@@H](C)C/C=C/[C@@](CN2CCN(C3COC3)CC2)(OC)[C@@H]2CC[C@H]2CN2C[C@@]3(CCCc4cc(Cl)ccc43)COc3ccc(cc32)C(=O)NS1(=O)=O [Example 187, (1S,3′R,6′R,7′R,8′E,11′S,12′R)-6-chloro-7′-methoxy-12′-(2-methoxyethyl)-11′-methyl-7′-((4-(3-oxetanyl)-1-piperazinyl)methyl)-3,4-dihydro-2H,15′H-spiro[naphthalene-1,22′-[20]oxa[13]thia[1,14]diazatetracyclo [14.7.2.0~3,6~.0~19,24~]pentacosa[8,16,18,24]tetraen]-15′-one 13′,13′-dioxide] | 0.066 nM | 43 nM
COCC[C@@H]1[C@@H](C)C/C=C/[C@@](CN2CCN(C(C)C)CC2)(OC)[C@@H]2CC[C@H]2CN2C[C@@]3(CCCc4cc(Cl)ccc43)COc3ccc(cc32)C(=O)NS1(=O)=O [Example 188, (1S,3′R,6′R,7′R,8′E,11′S,12′R)-6-chloro-7′-methoxy-12′-(2-methoxyethyl)-11′-methyl-7′-((4-(1-methylethyl)-1-piperazinyl)methyl)-3,4-dihydro-2H,15′H-spiro[naphthalene-1,22′-[20]oxa[13]thia[1,14]diazatetracyclo [14.7.2.0~3,6~.0~19,24~]pentacosa[8,16,18,24]tetraen]-15′-one 13′,13′-dioxide] | 0.084 nM | 38 nM
COCC[C@@H]1[C@@H](C)C/C=C/[C@@](CN2CCN(C(C)(C)C)CC2)(OC)[C@@H]2CC[C@H]2CN2C[C@@]3(CCCc4cc(Cl)ccc43)COc3ccc(cc32)C(=O)NS1(=O)=O [Example 189, (1S,3′R,6′R,7′R,8′E,11′S,12′R)-7′-((4-tert-butyl-1-piperazinyl)methyl)-6-chloro-7′-methoxy-12′-(2-methoxyethyl)-11′-methyl-3,4-dihydro-2H,15′H-spiro[naphthalene-1,22′-[20]oxa[13]thia[1,14]diazatetracyclo [14.7.2.0~3,6~.0~19,24~]pentacosa[8,16,18,24]tetraen]-15′-one 13′,13′-dioxide] | 0.084 nM | 33 nM

— patent US10821115B2, “Compounds that inhibit Mcl-1 protein” (priority 2017, dated 2020)
